Reference: patent US20240148707A1, “MODULATION OF DRUG-DRUG INTERACTIONS OF VADADUSTAT” (Akebia Therapeutics, Inc., priority 2021, published 2024)
Like-named read-outs stand apart in the source and are kept apart here. Blank lines part the entries; values can stand above or below the compound they belong to.

Columns and labels:
Type in all cases: in vivo, human
[1] = [14C]-labeled Compound 1 metabolism and excretion study in healthy adult males; settings: healthy adult male (6), single oral 650 mg [14C]-labeled Compound 1
Text: The urinary excretion rate of this drug and acyl glucuronide is less than 1% of the total radioactivity.

[2] = Phase I drug-drug interaction study with probenecid (Part 1, Arm 2); settings: for increase in exposure (AUC): administered with multiple doses of probenecid vs vadadustat alone
Experimental: (§1) A phase I, open-label, 2-part study was conducted in healthy male and female subjects to evaluate the potential for interaction of cyclosporine (Part 1, Arm 1), probenecid (Part 1, Arm 2), and rifampin (Part 2) with vadadustat.
On the morning of Day 1, subjects received a single oral dose of vadadustat (300 mg) as 2×150 mg tablets after at least a 10-hour overnight fast and remained fasted for at least 4 hours post-dose. Following a 2-day washout (Days 1 to 2), subjects received 1 oral probenecid 500 mg tablet Q12 h for 4 days (Days 3 to 6). On days that probenecid was administered alone (Days 3, 4, and 6), probenecid was administered in a fasted state 1 hour prior to a standard breakfast and 1 hour prior to an evening meal or snack. On Day 5, probenecid was co-administered with a single dose of vadadustat (300 mg as 2×150 mg tablets) following at least a 10-hour fast. Subjects remained fasted for at least 4 hours after dosing.
On days vadadustat was administered (Day 1 and Day 5), blood samples for PK analysis were collected up to 48 hours postdose. In addition, on vadadustat dosing days, pooled urine samples were collected up to 24 hours post-dose. Subjects were discharged from the CRU on the morning of Day 7, after the final 48-hour post-dose PK sample had been collected. A follow-up phone call was conducted 30 days±2 days after the final dose.

[3] = Phase I drug-drug interaction study with cyclosporine (Part 1, Arm 1)
Experimental: as §1
Subjects were randomized in a 1:1 ratio to 1 of 2 dosing sequences (A:B or B:A) to receive vadadustat 300 mg alone and vadadustat 300 mg in combination with oral cyclosporine 500 mg in a crossover design. Study drugs were administered in the morning after at least a 10-hour overnight fast. Subjects remained fasted for at least 4 hours post-dose. • Treatment A: a single oral dose of vadadustat (300 mg) administered as 2×150 mg tablets. • Treatment B: a single oral dose of vadadustat (300 mg) administered as 2×150 mg tablets co-administered with a single oral dose of cyclosporine (500 mg) administered as 5×100 mg capsules.
On the morning of Day 1, subjects received the first treatment (A or B). Following a 7-day washout, subjects crossed over to Period 2 to receive the second treatment of the dosing sequence (A or B) on Day 8.
On each dosing day (Day 1 and Day 8) blood samples for PK analysis were collected up to 48 hours post-dose. Subjects were discharged from the clinical research unit (CRU) on the morning of Day 10, after the final 48-hour post-dose PK sample had been collected. A follow-up phone call was conducted 30 days±2 days after the final dose.

[4] = Phase 1 drug-drug interaction study, vadadustat as perpetrator with adefovir (Arm 2); settings: for AUC(0-inf) / AUC(0-t) / Cmax: both sexes, human, plasma
Experimental: A Phase 1, open-label, fixed sequence study was conducted in healthy male and female subjects to evaluate vadadustat as a perpetrator of DDIs with digoxin and/or adefovir.
On the morning of Day 1, subjects received a single oral dose of adefovir 10 mg after at least a 10-hour overnight fast. Subjects remained fasted for at least 4 hours after dosing. Following a 3-day washout period, subjects received vadadustat 600 mg QD beginning on Day 4 for 5 days (Days 4-8). When administered alone, vadadustat was administered in the morning at least 30 minutes prior to breakfast. On Day 7 subjects received their morning dose of vadadustat 600 mg along with a single oral dose of adefovir 10 mg after at least a 10-hour overnight fast.

[5] = Phase 1 drug-drug interaction study, vadadustat as perpetrator with digoxin (Arm 1)
Experimental: A Phase 1, open-label, fixed sequence study was conducted in healthy male and female subjects to evaluate vadadustat as a perpetrator of DDIs with digoxin and/or adefovir. […] Subjects remained fasted for at least 4 hours after dosing. Following a 12-day washout period, subjects received vadadustat 600 mg QD beginning on Day 13 for 7 days (Days 13-19).

[6] = vadadustat 300 mg alone, single oral dose, fasted
[7] = vadadustat 300 mg single dose + probenecid 500 mg Q12h (multiple doses), fasted
[8] = vadadustat 300 mg with vs without probenecid 500 mg Q12h
[9] = vadadustat 300 mg + cyclosporine 500 mg, single oral doses, fasted
[10] = vadadustat 300 mg with vs without cyclosporine 500 mg
[11] = adefovir 10 mg with vs without vadadustat 600 mg QD
[12] = digoxin 0.5 mg single dose with vadadustat 600 mg QD (Day 16)
[13] = digoxin 0.5 mg with vs without vadadustat 600 mg QD

share of the total radioactivity (AUC0-∞) in plasma [1]: about 15% | increase in exposure (AUC) ([2]; listed as vadadustat-O-glucuronide): about 2 fold | increase in exposure (AUC) ([2]; listed as vadadustat-Oglucuronide): ~2 fold | change of Cmax values ([2]; in combination with probenecid): relatively unchanged | urinary excretion ([2]; in combination with probenecid): decreased | AUCinf, geometric LSM, Treatment V [2, 6]: 38240 ng·h/mL | AUClast, geometric LSM, Treatment V [2, 6]: 37410 ng·h/mL | Cmax, geometric LSM, Treatment V [2, 6]: 5590 ng/mL | AUCinf, geometric LSM, Treatment V + P [2, 7]: 86580 ng·h/mL | AUClast, geometric LSM, Treatment V + P [2, 7]: 83810 ng·h/mL | Cmax, geometric LSM, Treatment V + P [2, 7]: 6170 ng/mL | AUCinf, Ratio (V + P)/V [2, 8]: 226.39% | AUClast, Ratio (V + P)/V [2, 8]: 224.05% | Cmax, Ratio (V + P)/V [2, 8]: 110.38% | AUCinf, geometric LSM, Treatment V + C [3, 9]: 39210 ng·h/mL | AUClast, geometric LSM, Treatment V + C [3, 9]: 38130 ng·h/mL | Cmax, geometric LSM, Treatment V + C [3, 9]: 3900 ng/mL | AUCinf, geometric LSM, Treatment V [3, 6]: 34480 ng·h/mL | AUClast, geometric LSM, Treatment V [3, 6]: 33430 ng·h/mL | Cmax, geometric LSM, Treatment V [3, 6]: 4500 ng/mL | AUCinf, Ratio (V + C)/V [3, 10]: 113.74% | AUClast, Ratio (V + C)/V [3, 10]: 114.04% | Cmax, Ratio (V + C)/V [3, 10]: 86.63% | changes in the Cmax and AUC values ([3]; vadadustat in combination with cyclosporine): no clinically relevant changes
SMILES: O=C(O)CNC(=O)c1ncc(-c2cccc(Cl)c2)cc1O[C@@H]1O[C@H](C(=O)O)[C@@H](O)[C@H](O)[C@H]1O [Vadadustat-O-Glucuronide]

SMILES: Nc1ncnc2c1ncn2CCOCP(=O)(O)O [adefovir]
AUCinf, Ratio (V + A)/A [4, 11]: 114.70% | AUClast, Ratio (V + A)/A [4, 11]: 114.74% | Cmax, Ratio (V + A)/A [4, 11]: 95.15% | systemic exposure to adefovir ([4]; adefovir administered with vadadustat vs adefovir alone): relatively unchanged | AUC(0-inf) ([4]; oral, adefovir 10 mg single dose with vadadustat 600 mg QD (Day 7), read-out: AUCinf, geometric LSM, Treatment V + A): 230 ng·h/mL | AUC(0-t) ([4]; oral, adefovir 10 mg single dose with vadadustat 600 mg QD (Day 7), read-out: AUClast, geometric LSM, Treatment V + A): 227 ng·h/mL | Cmax ([4]; oral, adefovir 10 mg single dose with vadadustat 600 mg QD (Day 7), read-out: Cmax, geometric LSM, Treatment V + A): 17.1 ng/mL | AUC(0-inf) ([4]; adefovir 10 mg alone, single oral dose, fasted, read-out: AUCinf, geometric LSM, Treatment A): 201 ng·h/mL | AUC(0-t) ([4]; adefovir 10 mg alone, single oral dose, fasted, read-out: AUClast, geometric LSM, Treatment A): 198 ng·h/mL | Cmax ([4]; adefovir 10 mg alone, single oral dose, fasted, read-out: Cmax, geometric LSM, Treatment A): 17.9 ng/mL

AUC(0-t) ([5]; both sexes, human, plasma, oral, digoxin 0.5 mg single dose with vadadustat 600 mg QD (Day 16), read-out: AUClast, geometric LSM, Treatment V + D): 31.7 ng·h/mL | AUC(0-inf) ([5]; both sexes, human, plasma, digoxin 0.5 mg alone, single oral dose, fasted, read-out: AUCinf, geometric LSM, Treatment D): 36.3 ng·h/mL | AUC(0-t) ([5]; both sexes, human, plasma, digoxin 0.5 mg alone, single oral dose, fasted, read-out: AUClast, geometric LSM, Treatment D): 34.6 ng·h/mL | Cmax, geometric LSM, Treatment D ([5]; digoxin 0.5 mg alone, single oral dose, fasted): 2.46 ng/mL | AUCinf, geometric LSM, Treatment V + D [5, 12]: 33.19 ng·h/mL | Cmax, geometric LSM, Treatment V + D [5, 12]: 1.64 ng/mL | AUCinf, Ratio (V + D)/D [5, 13]: 91.37% | AUClast, Ratio (V + D)/D [5, 13]: 91.49% | Cmax, Ratio (V + D)/D [5, 13]: 66.92% | decrease of digoxin Cmax ([5]; digoxin and vadadustat coadministered vs digoxin alone): ~35% | total exposure (AUClast and AUCinf) to digoxin ([5]; digoxin following multiple doses of vadadustat vs digoxin alone): unchanged
SMILES: C[C@H]1O[C@@H](O[C@H]2[C@@H](O)C[C@H](O[C@H]3[C@@H](O)C[C@H](O[C@H]4CC[C@@]5(C)[C@H](CC[C@@H]6[C@@H]5C[C@@H](O)[C@]5(C)[C@@H](C7=CC(=O)OC7)CC[C@]65O)C4)O[C@@H]3C)O[C@@H]2C)C[C@H](O)[C@@H]1O [digoxin]
